Data from publication PMC4742142, “Identification of novel, in vivo active Chk1 inhibitors utilizing structure guided drug design” (Oncotarget, 2015).
Entries after “also recorded” stand apart in the source; their conditions may differ. Where two headings read alike, the source gives them in different places.

What was measured:
[1] = biological target: T1, Chk1 (Homo sapiens, UniProt O14757); experiment: In vitro kinase assay, Chk1; format: biochemical
T1 sequence (O14757 1-476): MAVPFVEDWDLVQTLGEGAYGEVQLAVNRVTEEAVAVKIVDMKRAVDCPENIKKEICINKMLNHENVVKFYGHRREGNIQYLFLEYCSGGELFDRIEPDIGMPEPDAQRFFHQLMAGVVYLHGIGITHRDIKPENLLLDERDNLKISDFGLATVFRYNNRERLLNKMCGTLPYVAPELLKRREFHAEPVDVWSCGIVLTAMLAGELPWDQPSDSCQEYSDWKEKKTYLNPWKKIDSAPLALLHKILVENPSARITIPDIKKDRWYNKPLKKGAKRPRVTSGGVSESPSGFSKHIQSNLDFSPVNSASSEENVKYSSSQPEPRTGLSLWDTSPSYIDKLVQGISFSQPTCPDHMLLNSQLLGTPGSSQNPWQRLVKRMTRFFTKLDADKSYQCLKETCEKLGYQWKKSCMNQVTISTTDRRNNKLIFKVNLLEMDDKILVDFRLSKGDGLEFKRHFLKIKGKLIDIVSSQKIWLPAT
Method: (§1) Kinase assays were performed as previously described.

[2] = system: NCI-H460; experiment: Single agent cytotoxicity assay (SRB, 72 hours); format: cell-based; details: Homo sapiens, NCI-H460, lung
Method: (§2) All cells were obtained from the American Type Culture Collection and maintained as low passage stocks. Cells were routinely cultured in DMEM or RPMI1640 containing 10% FCS and 1% penicillin / streptomycin (Invitrogen). The cytotoxicity of V158411 was determined following exposure of cells in 96 well plates using a 10-point titration for 72 hours. Cell proliferation was determined using sulphorhodamine B staining following protein precipitation with 10% TCA.

[3] = system: Colo205; experiment: Single agent cytotoxicity assay (SRB, 72 hours); format: cell-based; details: Homo sapiens, COLO 205, Colo205, colon
Method: as §2

[4] = system: A549; experiment: Single agent cytotoxicity assay (SRB, 72 hours); format: cell-based; details: Homo sapiens, A549, lung
Method: as §2

[5] = system: SW620; experiment: Single agent cytotoxicity assay (SRB, 72 hours); format: cell-based; details: Homo sapiens, SW-620, SW620, colon
Method: as §2

[6] = system: PC3; experiment: Single agent cytotoxicity assay (SRB, 72 hours); format: cell-based; details: Homo sapiens, PC-3, PC3, prostate
Method: as §2

[7] = system: NCI-H520; experiment: Single agent cytotoxicity assay (SRB, 72 hours); format: cell-based; details: Homo sapiens, NCI-H520, lung
Method: as §2

[8] = system: HT29; experiment: Single agent cytotoxicity assay (SRB, 72 hours); format: cell-based; details: Homo sapiens, HT-29, HT29, colon
Method: as §2

[9] = system: HCT116; experiment: Single agent cytotoxicity assay (SRB, 72 hours); format: cell-based; details: Homo sapiens, HCT-116, HCT116, colon
Method: as §2

[10] = Pharmacokinetics of V158411 and irinotecan, single and combination administration; format: in vivo; details: mouse; for half-life / CL/F: female, Balb/C, plasma; for CL/F: read-out: CL or CL/F
Method: Dosing of animals and collection of samples was conducted by Quotient Bioresearch (Rushden) Ltd, UK. V158411 was administered by intravenous (IV) bolus injection to female Balb/C mice, male Sprague-Dawley rats or male beagle dogs. Plasma samples were prepared by protein precipitation with acetonitrile containing internal standard (IS; dextromethorphan, 0.5 μg/mL); the analysis plate was centrifuged at 3,000 rpm for 10 minutes at 4°C. […] The ratios of analyte against IS peak areas were calculated, and concentrations derived from calibration lines generated by Quanlynx (Waters Ltd.).
Pharmacokinetic parameters were calculated using the software package WinNonLin (Pharsight Corp.). Data was analyzed using noncompartmental analysis and fitted using plasma concentration versus time curves.

[11] = system: SW620 xenograft; experiment: SW620 xenograft antitumor efficacy
Source text: Xenograft studies were undertaken by Charles River Laboratories Discovery Services, North Carolina. On the day of tumor cell implant, Colo205 cells were harvested and resuspended in 50% Matrigel matrix (BD Biosciences) in PBS at a concentration of 5 × 10^6 cells/mL. Each test mouse received 1 × 10^6 Colo205 cells implanted subcutaneously (SC) in the flank of female athymic nude mice (HRLN or NCr nu/nu), and tumor growth was monitored as the average size approached 100-150 mm^3. The SW620 tumor line was maintained by serial SC transplantation in female athymic nude mice (HRLN nu/nu). Tumor fragments, approximately 1 mm^3 each, were implanted SC into the right flank of each animal and allowed to grow towards a target size of 100-150 mm^3. On day 1 of the study, tumors were randomized into treatment groups before compound administration.
V158411 was formulated in D5W and administered via IV injection into the tail vein. Cyclic treatment regimens were followed and treatment ranged from 2-3 cycles.
Tumor size was measured with electronic calipers and tumor volume calculated according to the formula ((width × width) × length) /2.
The study endpoint was defined as a tumor volume of 750 mm^3 for Colo205 or 1500 mm^3 for SW620, or day 60, whichever came first. Each animal was euthanized when its' tumor reached this endpoint. The time to endpoint (TTE) for each mouse was calculated from the equation TTE = (log10(endpoint volume)-b)/m where b is the intercept and m the slope of the line obtained by linear regression of a log-transformed tumor growth data set.

[12] = biological target: CDK1 (Homo sapiens, UniProt P06493); experiment: In vitro kinase assay, CDK1; format: biochemical
Method: as §1

[13] = biological target: T1, Chk1; experiment: Wide panel binding assay (386 kinases); details: Chk1, 50 nM
Method: Selectivity against the cell cycle kinase CDK1 is considered critical for the pharmacological activity of Chk1 inhibitors as inhibiting it would prevent the G2 checkpoint abrogation and entry into mitosis; critical for the potentiation of cytotoxic DNA damage. Against a panel of 386 kinases in a wide panel binding assay, V158411 inhibited the activity of one kinase (Chk1) in the range 99-100%, three kinases 90-99% and 19 kinases 65-90% at 50 nM (Supplementary Table 1).

[14] = system: panel of human cancer cell lines; experiment: Single agent cytotoxicity, whole panel; format: cell-based; details: range over the cell lines, read-out: GI50s across the panel
Method: as §2

[15] = biological target: Chk2 (Homo sapiens, UniProt O96017); experiment: In vitro kinase assay, Chk2; format: biochemical; details: full length Chk2
Method: as §1

[16] = other: V158411 intravenous, irinotecan intraperitoneal
[17] = other: irinotecan intraperitoneal, V158411 intravenous
[18] = SW620, 100 mg/kg irinotecan followed by 30 mg/kg V158411
[19] = SW620, 100 mg/kg irinotecan followed by 60 mg/kg V158411

Sequence of CDK1 (P06493 whole entry): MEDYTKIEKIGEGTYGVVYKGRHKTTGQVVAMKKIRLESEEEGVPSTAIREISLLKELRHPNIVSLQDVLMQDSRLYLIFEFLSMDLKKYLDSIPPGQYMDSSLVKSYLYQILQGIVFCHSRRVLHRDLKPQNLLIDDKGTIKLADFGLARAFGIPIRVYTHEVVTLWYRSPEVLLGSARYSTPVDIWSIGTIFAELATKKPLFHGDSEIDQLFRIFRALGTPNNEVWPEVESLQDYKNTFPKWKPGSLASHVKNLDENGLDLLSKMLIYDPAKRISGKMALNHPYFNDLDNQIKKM
Sequence of CDK1 (P14635 whole entry partner): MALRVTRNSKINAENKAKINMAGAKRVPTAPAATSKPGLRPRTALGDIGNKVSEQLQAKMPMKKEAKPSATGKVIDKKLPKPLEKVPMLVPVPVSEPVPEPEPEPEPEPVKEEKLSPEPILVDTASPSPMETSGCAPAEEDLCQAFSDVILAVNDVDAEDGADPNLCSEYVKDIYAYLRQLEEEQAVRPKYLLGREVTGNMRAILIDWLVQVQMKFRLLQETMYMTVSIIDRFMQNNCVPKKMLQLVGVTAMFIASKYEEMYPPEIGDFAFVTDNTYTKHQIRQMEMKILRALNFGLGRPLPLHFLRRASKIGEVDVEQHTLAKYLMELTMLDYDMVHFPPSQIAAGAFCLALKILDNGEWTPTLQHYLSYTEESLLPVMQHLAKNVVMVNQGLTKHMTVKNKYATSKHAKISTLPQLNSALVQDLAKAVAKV
Sequence of Chk2 (O96017 whole entry): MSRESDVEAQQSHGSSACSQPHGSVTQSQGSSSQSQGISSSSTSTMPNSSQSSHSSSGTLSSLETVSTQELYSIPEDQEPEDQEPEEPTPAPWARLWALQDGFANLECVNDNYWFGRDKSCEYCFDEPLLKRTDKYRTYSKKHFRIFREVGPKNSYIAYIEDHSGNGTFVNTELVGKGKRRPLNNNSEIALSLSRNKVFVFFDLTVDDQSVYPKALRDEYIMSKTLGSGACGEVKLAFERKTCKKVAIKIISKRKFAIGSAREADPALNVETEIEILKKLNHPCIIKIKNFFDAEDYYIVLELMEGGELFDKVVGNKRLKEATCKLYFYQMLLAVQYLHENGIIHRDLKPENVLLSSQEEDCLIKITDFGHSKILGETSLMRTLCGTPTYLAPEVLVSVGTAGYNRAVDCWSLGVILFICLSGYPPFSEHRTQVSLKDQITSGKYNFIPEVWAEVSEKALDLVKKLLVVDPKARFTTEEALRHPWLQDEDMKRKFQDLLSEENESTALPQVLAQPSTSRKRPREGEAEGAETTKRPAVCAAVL

CN(C)CC(C)(C)COc1ccc2[nH]c(-c3cc(NC(=O)c4cnn(Cc5ccccc5)c4)c[nH]c3=O)cc2c1 [V158411]
IC50 [1]: 4.4 nM
GI50 [2]: 2700 ± 930 nM
GI50 [3]: 1600 ± 420 nM
GI50 [4]: 1400 ± 350 nM
GI50 [5]: 500 ± 33 nM
GI50 [6]: 9500 ± 1000 nM
GI50 [7]: 550 ± 140 nM
GI50 [8]: 650 ± 250 nM
GI50 [9]: 4000 ± 780 nM
half-life [10, 16]: 3.4 h
CL/F [10, 16]: 17.7 mL/min/kg
half-life [10, 17]: 3.3 h
CL/F [10, 17]: 8.2 mL/min/kg
AUClast fold change ([10]; combination (C) versus single administration (I)): 2.2 fold
%TGD [11, 18]: 117%
T-C [11, 18]: 15.5
Median TTE ([11]; SW620, 100 mg/kg irinotecan followed by 30 mg/kg V158411 2 hours later): 28.8 days
%TGD [11, 19]: 154%
T-C [11, 19]: 21.3
Median TTE ([11]; SW620, 100 mg/kg irinotecan followed by 60 mg/kg V158411 2 hours later): 35.1 days
single agent anti-tumor activity ([11]; SW620, V158411 monotherapy): did not inhibit tumor growth; also recorded: no single agent activity
mean body weight nadir ([11]; SW620, irinotecan plus 60 mg/kg V158411, day 5): −13.3%
IC50 [12]: > 50000 nM
selectivity for CDK1 ([12]; Chk1 versus CDK1): more than 10 000 fold
Percent inhibition at 50 nM ([13]; 0.05 µM): 99-100%
inhibition at 0.05 µM ([13]; read-out: Percent inhibition at 50 nM): 100%
IC50 [14]: 500 to 9500 nM
IC50 [15]: 4.5 nM
